{"source": "patent US20160199524A1", "about": "“RADIOSENSITIVITY OF FLUOROPHORES AND USE OF RADIOPROTECTIVE AGENTS FOR DUAL-MODALITY IMAGING” (Immunomedics, Inc., priority 2015, published 2016)", "key": {"[1]": {"test": "Biodistribution of Al^18F(IMP485) alone or TF2 pretargeted", "settings": "nude, mouse, in vivo, iv, total radioactivity; for tissue uptake at 3 h / tissue uptake dose at 3 h: 28 uCi, alone, 3 h post injection", "protocol": "(§1) Mice were necropsied at 1 and 3 h post injection, 7 mice per time point.\n(§2) Biodistribution studies were performed in Taconic nude mice bearing subcutaneous LS174T tumor xenografts.\n(§3) Mice were necropsied at 1 and 3 h post injection, 6 mice per time point."}, "[2]": {"system": "nude mice bearing LS174T human colonic cancer xenografts", "test": "in vivo", "protocol": "as §1, §2, §3"}, "[3]": {"settings": "Taconic nude, mouse, in vivo, iv, 1 h"}, "[4]": {"settings": "Taconic nude, mouse, in vivo, iv, 3 h"}, "[5]": {"settings": "nude (Taconic), mouse, in vivo, iv, 3 h"}, "[6]": {"settings": "nude, mouse, in vivo, iv, 28 uCi, 3 h"}}}
{"smiles": "NC(=O)[C@@H](CCCCNC(=O)CNC(=O)CCC(=O)NCCc1c[nH]cn1)NC(=O)[C@@H](Cc1ccc(O)cc1)NC(=O)[C@@H](CCCCNC(=O)CNC(=O)CCC(=O)NCCc1c[nH]cn1)NC(=O)Cc1ccc(CN2CCN(CC(=O)O)CCN(CC(=O)O)CC2)cc1", "note": "[Al^18F(IMP485)]", "values": [{"measurement": "tissue uptake at 3 h", "setting": "[1]; % ID/g Spleen", "result": 0.065, "unit": "%ID/g"}, {"measurement": "tissue uptake at 3 h", "setting": "[1]; % ID/g Stomach", "result": 0.041, "unit": "%ID/g"}, {"measurement": "tissue uptake at 3 h", "setting": "[1]; % ID/g Tumor", "result": 0.088, "unit": "%ID/g"}, {"measurement": "tissue uptake dose at 3 h", "setting": "[1]; % ID/org Blood", "result": 0.013, "unit": "%ID"}, {"measurement": "tissue uptake dose at 3 h", "setting": "[1]; % ID/org Kidney", "result": 0.345, "unit": "%ID"}, {"measurement": "tissue uptake dose at 3 h", "setting": "[1]; % ID/org Lg. Int.", "result": 0.408, "unit": "%ID"}, {"measurement": "tissue uptake dose at 3 h", "setting": "[1]; % ID/org Liver", "result": 0.114, "unit": "%ID"}, {"measurement": "tissue uptake dose at 3 h", "setting": "[1]; % ID/org Scapula", "result": 0.006, "unit": "%ID"}, {"measurement": "tissue uptake dose at 3 h", "setting": "[1]; % ID/org Sm. Int.", "result": 0.119, "unit": "%ID"}, {"measurement": "tissue uptake dose at 3 h", "setting": "[1]; % ID/org Spleen", "result": 0.006, "unit": "%ID"}, {"measurement": "tissue uptake dose at 3 h", "setting": "[1]; % ID/org Stomach", "result": 0.016, "unit": "%ID"}, {"measurement": "tissue uptake dose at 3 h", "setting": "[1]; % ID/org Tumor", "result": 0.022, "unit": "%ID"}, {"measurement": "tissue uptake at 1 h", "setting": "[1]; % ID/g Blood", "result": 0.278, "unit": "%ID/g"}, {"measurement": "tissue uptake at 1 h", "setting": "[1]; % ID/g Lung", "result": 0.535, "unit": "%ID/g"}, {"measurement": "tissue uptake at 1 h", "setting": "[1]; % ID/g Sm. Int.", "result": 0.686, "unit": "%ID/g"}, {"measurement": "tissue uptake at 1 h", "setting": "[1]; % ID/g Stomach", "result": 0.534, "unit": "%ID/g"}, {"measurement": "tissue uptake dose at 1 h", "setting": "[1]; % ID/org Blood", "result": 0.456, "unit": "%ID"}, {"measurement": "tissue uptake dose at 1 h", "setting": "[1]; % ID/org Lung", "result": 0.075, "unit": "%ID"}, {"measurement": "tissue uptake dose at 1 h", "setting": "[1]; % ID/org Stomach", "result": 0.265, "unit": "%ID"}, {"measurement": "% ID/g Lg. Int.", "setting": "[2]; [3]", "result": "0.10 ± 0.03", "unit": "% ID/g"}, {"measurement": "% ID/g Liver", "setting": "[2]; [3]", "result": "0.24 ± 0.04", "unit": "% ID/g"}, {"measurement": "% ID/g Muscle", "setting": "[2]; [3]", "result": "0.14 ± 0.10", "unit": "% ID/g"}, {"measurement": "% ID/g Blood", "setting": "[2]; [4]", "result": "0.02 ± 0.01", "unit": "% ID/g"}, {"measurement": "% ID/g Lung", "setting": "[2]; [4]", "result": "0.24 ± 0.06", "unit": "% ID/g"}, {"measurement": "% ID/g Muscle", "setting": "[2]; [4]", "result": "0.03 ± 0.01", "unit": "% ID/g"}, {"measurement": "% ID/g Stomach", "setting": "[2]; [4]", "result": "0.03 ± 0.02", "unit": "% ID/g"}, {"measurement": "% ID/g Sm. Int.", "setting": "[2]; alone, 1 h post injection", "result": "0.40 ± 0.13", "unit": "% ID/g"}, {"measurement": "% ID/g Spleen", "setting": "[2]; alone, 1 h post injection", "result": "0.21 ± 0.18", "unit": "% ID/g"}, {"measurement": "% ID/g Stomach", "setting": "[2]; alone, 1 h post injection", "result": "0.13 ± 0.11", "unit": "% ID/g"}, {"measurement": "% ID/g Tumor", "setting": "[2]; alone, 1 h post injection", "result": "0.32 ± 0.11", "unit": "% ID/g"}, {"measurement": "T/NT Blood", "setting": "[2]; alone, 1 h post injection", "result": 2.0}, {"measurement": "T/NT Kidney", "setting": "[2]; alone, 1 h post injection", "result": 0.1}, {"measurement": "T/NT Lg. Int.", "setting": "[2]; alone, 1 h post injection", "result": 3.9}, {"measurement": "T/NT Liver", "setting": "[2]; alone, 1 h post injection", "result": 1.8}, {"measurement": "T/NT Lung", "setting": "[2]; alone, 1 h post injection", "result": 1.3}, {"measurement": "T/NT Muscle", "setting": "[2]; alone, 1 h post injection", "result": 4.1}, {"measurement": "T/NT Scapula", "setting": "[2]; alone, 1 h post injection", "result": 2.9}, {"measurement": "T/NT Sm. Int.", "setting": "[2]; alone, 1 h post injection", "result": 0.8}, {"measurement": "T/NT Spleen", "setting": "[2]; alone, 1 h post injection", "result": 1.9}, {"measurement": "T/NT Stomach", "setting": "[2]; alone, 1 h post injection", "result": 3.5}, {"measurement": "T/NT Tumor", "setting": "[2]; alone, 1 h post injection", "result": 1.0}, {"measurement": "% ID/g Stomach", "setting": "[2]; alone, 3 h post injection", "result": "0.04 ± 0.02", "unit": "% ID/g"}, {"measurement": "% ID/g Tumor", "setting": "[2]; alone, 3 h post injection", "result": "0.09 ± 0.02", "unit": "% ID/g"}, {"measurement": "T/NT Blood", "setting": "[2]; alone, 3 h post injection", "result": 21.0}, {"measurement": "T/NT Kidney", "setting": "[2]; alone, 3 h post injection", "result": 0.0}, {"measurement": "T/NT Lg. Int.", "setting": "[2]; alone, 3 h post injection", "result": 0.1}, {"measurement": "T/NT Liver", "setting": "[2]; alone, 3 h post injection", "result": 13.6}, {"measurement": "T/NT Lung", "setting": "[2]; alone, 3 h post injection", "result": 1.3}, {"measurement": "T/NT Muscle", "setting": "[2]; alone, 3 h post injection", "result": 203.9}, {"measurement": "T/NT Scapula", "setting": "[2]; alone, 3 h post injection", "result": 1.2}, {"measurement": "T/NT Sm. Int.", "setting": "[2]; alone, 3 h post injection", "result": 0.7}, {"measurement": "T/NT Spleen", "setting": "[2]; alone, 3 h post injection", "result": 1.4}, {"measurement": "T/NT Stomach", "setting": "[2]; alone, 3 h post injection", "result": 2.5}, {"measurement": "T/NT Tumor", "setting": "[2]; alone, 3 h post injection", "result": 1.0}, {"measurement": "T/NT Tumor", "setting": "[2]; mouse, in vivo", "result": 1}, {"measurement": "% ID/g Lg. Int.", "setting": "[2]; nude (Taconic), mouse, in vivo, iv, 28 uCi, 1 h", "result": "0.08 ± 0.02", "unit": "% ID/g"}, {"measurement": "% ID/g Lung", "setting": "[2]; nude (Taconic), mouse, in vivo, iv, 28 uCi, 3 h", "result": "0.07 ± 0.02", "unit": "% ID/g"}, {"measurement": "% ID/g Scapula", "setting": "[2]; [5]", "result": "0.06 ± 0.02", "unit": "% ID/g"}, {"measurement": "% ID/g Spleen", "setting": "[2]; [5]", "result": "0.25 ± 0.11", "unit": "% ID/g"}, {"measurement": "% ID/g Liver", "setting": "[2]; [6]", "result": "0.10 ± 0.05", "unit": "% ID/g"}, {"measurement": "% ID/g Muscle", "setting": "[2]; [6]", "result": "0.01 ± 0.01", "unit": "% ID/g"}, {"measurement": "% ID/g Blood", "setting": "[2]; nude, mouse, in vivo, iv, 1 h", "result": "0.28 ± 0.07", "unit": "% ID/g"}, {"measurement": "% ID/g Stomach", "setting": "[2]; nude, mouse, in vivo, iv, 1 h", "result": "0.53 ± 1.18", "unit": "% ID/g"}]}
